≈ marks a conversion by molar mass, not a printed value. A value given as a limit tells only on which side of the number the result lay.

Experimental findings from ChEMBL document CHEMBL1141781, “Antineoplastic agents. 542. Isolation and structure of sesterstatin 6 from the Indian Ocean sponge Hyrtios erecta” (2005) are described below.

What all share (type): functional
One test relates to P388. The experiment in a line: Growth inhibition of mouse P388 cells. The following applies: read-out: ED50 (the source's name).
The nature of test [1]: Growth inhibition of human KAT4 cells. The following applies: KAT-4.
The subject of a further test is DU-145. In words: Growth inhibition of human DU145 cells.
The test system of another test is SW-1736. The experiment in a line: Growth inhibition of human SW1736 cells.
A further test deals with BXPC-3. The experiment in a line: Growth inhibition of human BxPC3 cells.
A further test concerns FaDu. In words: Growth inhibition of human FADU cells.
The subject of a further test is NCI-H460. The experiment in a line: Growth inhibition of human NCI-H460 cells.
The next test deals with U-251. The experiment in a line: Growth inhibition of human U251 cells.
For another test, the system named is RPMI-7951. The experiment in a line: Growth inhibition of human RPMI7951 cells.

In the case of `CC1(C)[C@@H](O)CC[C@]2(C)[C@H]3C[C@@H](O)[C@]4(C)C5=C(CC[C@H]4[C@]3(C)CC[C@@H]12)COC5=O` [SESTERSTATIN 1], the EC50 in the test on P388 turned out to be 0.46 µg/mL (≈ 1.14 µM).
Same read-out and setting: with `C[C@]1(CO)CCC[C@]2(C)[C@H]3C[C@@H](O)[C@]4(C)C5=C(CC[C@H]4[C@]3(C)CC[C@@H]12)COC5=O` [SESTERSTATIN 2] the figure was 4.2 µg/mL (≈ 10.4 µM); with `C[C@@]1(CO)CCC[C@]2(C)[C@H]3C[C@@H](O)[C@]4(C)C5=C(CC[C@H]4[C@]3(C)CC[C@@H]12)COC5=O` [SESTERSTATIN 3], 4.3 µg/mL (≈ 10.7 µM).
As a reminder, the GI50 is the concentration giving 50% growth inhibition. Lower therefore signals more potent growth inhibition. `CC1(C)CCC[C@]2(C)[C@H]3C[C@@H](O)[C@]4(C)c5cocc5[C@H](O)C[C@H]4[C@]3(C)CC[C@@H]12` [SESTERSTATIN 4]: the 50% growth inhibitory concentration (GI50) was found to be 2 µg/mL (≈ 5.17 µM) in [1]; 1.6 µg/mL (≈ 4.14 µM) in the test on DU-145; 2.1 µg/mL (≈ 5.43 µM) in the test with SW-1736; 1.6 µg/mL (≈ 4.14 µM) in the test on BXPC-3; 2 µg/mL (≈ 5.17 µM) in the test with FaDu; 1.8 µg/mL (≈ 4.66 µM) in the test on NCI-H460. The EC50 in the test with P388 was 4.9 µg/mL (≈ 12.7 µM).
As for `CC1(C)CCC[C@]2(C)[C@H]3C[C@@H](O)[C@]4(C)c5cocc5[C@@H](O)C[C@H]4[C@]3(C)CC[C@@H]12` [SESTERSTATIN 5], in the test with P388, the EC50 is over 10 µg/mL. Also, the GI50 in the test on U-251 was found to be 1.9 µg/mL (≈ 4.91 µM); in the test with DU-145, 1.9 µg/mL (≈ 4.91 µM); in the test with BXPC-3, 2.2 µg/mL (≈ 5.69 µM); with RPMI-7951, 2.1 µg/mL (≈ 5.43 µM); with FaDu, 1.9 µg/mL (≈ 4.91 µM); in the test with NCI-H460, 2.5 µg/mL (≈ 6.47 µM).
Take `CC1(C)CCC[C@]2(C)[C@H]3C[C@@H](O)[C@]4(C)C5=C(C(=O)O[C@H]5O)[C@@H](O)C[C@H]4[C@]3(C)CC[C@@H]12` [SESTERSTATIN 6]: the 50% growth inhibitory concentration (GI50) was found to be 0.4 µg/mL (≈ 0.956 µM) in test [1]; 0.37 µg/mL (≈ 0.884 µM) in the test with DU-145; 0.87 µg/mL (≈ 2.08 µM) in the test on SW-1736; 0.44 µg/mL (≈ 1.05 µM) in the test with BXPC-3; 0.89 µg/mL (≈ 2.13 µM) with FaDu; 0.18 µg/mL (≈ 0.43 µM) in the test with NCI-H460. Further, the EC50 with P388 was 0.17 µg/mL (≈ 0.406 µM).
